Measured values taken from patent US4180505A, “Novel steroidspirooxazolidines and process for their preparation” (Richter Gedeon Vegyeszet, Gyar RT, priority 1977, dated 1979).

Assays:
aldosterone = experiment: Aldosterone antagonist effect in adrenalectomized DOCA-treated rats, urinary Na+/K+ (method of C. M. Kagawa); type: in vivo; details: for Activity related to Spironolactone: Spironolactone = 1.0
Experimental: M. Kagawa [C. M. Kagawa et al., J. Pharmacol. Exp. Ther. 126, 123 (1959)].
18 hours after the removal of their suprarenal glands, desoxycorticosterone acetate (DOCA) was administered to groups of rats which were simultaneously treated with the test and, respectively, the reference compounds. The reference compound, i.e. Spironolactone (17α-carboxyethyl-17β-hydroxy-7α-acetylthioandrost-4-en-3-one-lactone), was administered orally in a dose of 480 μg./animal. The Na^+ and K^+ concentrations in the urine of the treated animals were determined by flame photometry. Evaluation was made on the basis of the Na^+ /K^+ proportions.

[1] = test system: vesicula seminalis gland (weight increase induced by testosterone propionate); experiment: Antiandrogenic activity in castrated testosterone propionate-treated male mice, vesicula seminalis weight (modified method of Dorfman); type: in vivo
Experimental: The antiandrogenic activity of the compounds according to the invention--anundesirable side-effect exerted by spironolactone during protracted treating--was tested by the modified method of Dorfman (R. Dorfman: Steroids 2, 185 (1963).
Castrated male mice weighing 25 to 30 g. each were treated with testosterone propionate (T.P.) in every second day. The total dose amounted to 300 μg./2 weeks/animal. The test compounds were administered parallel with the T. […] The antiandrogenic activity of a given test compound was expressed in %. If the increase in weight of the vesicula seminalis gland induced by T.P. is 100%, subtracting the weight-increase induced by the combination of T.P. and the test compound from 100, the percentage inhibition is obtained.
Each group of test amimals consisted of from 8 to 10 mice.

[2] = Rattus norvegicus, po, 480 μg/animal p.o., read-out: DOCA blocking activity
[3] = Rattus norvegicus, po, 960 μg/animal p.o., read-out: DOCA blocking activity
[4] = 5.0 mg/2 weeks/animal s.c., with testosterone propionate
[5] = 10.0 mg/2 weeks/animal s.c., with testosterone propionate

In the case of CC[C@]12CC[C@H]3[C@@H](CCC4=CC(=NOC)CC[C@@H]43)[C@@H]1CC[C@@]21CN(C)C(=O)O1 [13β-Ethyl-3-methoxyiminogon-4-ene-17S-spiro-5'-(2'-oxo-3'-methyloxazolidine)], the “log (Na × 10 / K), X ± S” value (aldosterone; 480 μg/animal p.o., with DOCA) was 1.19, the “Activity related to Spironolactone” value (aldosterone; 480 μg/animal p.o.) was 0.98 and the “log (Na × 10 / K), X ± S” value (aldosterone; 960 μg/animal p.o., with DOCA) was 0.97. For the same compound, the inhibition in vivo at 0.48 mg (aldosterone; [2]) was 53%, the inhibition in vivo at 0.96 mg (aldosterone; [3]) was 24% and the “+ Stimulation, % / - Inhibition, %” value [1, 4] was “+15.0%”. For the same compound, the “Increase in weight of vesicula seminalis” value [1, 4] was 115.0%.

C/C=C\N1C[C@@]2(CC[C@H]3[C@@H]4CCC5=C(CC=C(OC)C5)[C@H]4CC[C@@]32CC)OC1=O [13β-Ethyl-3-methoxygona-2,5(10)-diene-17S-spiro-5'-(2'-oxo-3'-(1"-cis-propenyl)-oxazolidine)] was tested, and the “log (Na × 10 / K), X ± S” value (aldosterone; 480 μg/animal p.o., with DOCA) was 1.16, the “Activity related to Spironolactone” value (aldosterone; 480 μg/animal p.o.) was 0.96 and the “log (Na × 10 / K), X ± S” value (aldosterone; 960 μg/animal p.o., with DOCA) was 1.22. The inhibition in vivo at 0.48 mg (aldosterone; [2]) was 49%, the inhibition in vivo at 0.96 mg (aldosterone; [3]) was 56% and the “+ Stimulation, % / - Inhibition, %” value [1, 4] was “+12.5%”. The “Increase in weight of vesicula seminalis” value [1, 4] was 112.5%.

In the case of CN1C[C@@]2(CC[C@H]3[C@@H]4CC=C5C[C@@H](F)CC[C@]5(C)[C@H]4CC[C@@]32C)OC1=O [3β-Fluoroandrost-5-ene-17S-spiro-5'-(2'-oxo-3'-methyloxazolidine)], the “log (Na × 10 / K), X ± S” value (aldosterone; 480 μg/animal p.o., with DOCA) was 0.98, the “Activity related to Spironolactone” value (aldosterone; 480 μg/animal p.o.) was 0.80 and the “log (Na × 10 / K), X ± S” value (aldosterone; 960 μg/animal p.o., with DOCA) was 1.13. The inhibition in vivo at 0.48 mg (aldosterone; [2]) was 26% and the inhibition in vivo at 0.96 mg (aldosterone; [3]) was 45%.

For CCC(=O)O[C@H]1CC[C@H]2[C@@H]3CCC4=CC(=O)CC[C@]4(C)[C@H]3CC[C@]12C [Testosterone propionate, testosterone propionate, reference compound], the “Increase in weight of vesicula seminalis” value ([1]; testosterone propionate, 0.3 mg/2 weeks/animal) was 100%.

With CN1C[C@@]2(CC[C@H]3[C@@H]4C=C[C@]56C[C@@H](O)CC[C@]5(C6)[C@H]4CC[C@@]32C)OC1=O [3β-Hydroxy-5β,19-cycloandrost-6-ene-17S-spiro-5'-(2'-oxo-3'-methyloxazolidine)] the “log (Na × 10 / K), X ± S” value (aldosterone; 480 μg/animal p.o., with DOCA) was 1.18, the “Activity related to Spironolactone” value (aldosterone; 480 μg/animal p.o.) was 0.98 and the “log (Na × 10 / K), X ± S” value (aldosterone; 960 μg/animal p.o., with DOCA) was 1.23. The inhibition in vivo at 0.48 mg (aldosterone; [2]) was 51% and the inhibition in vivo at 0.96 mg (aldosterone; [3]) was 58%.

In the case of CC[C@]12CC[C@@H]3C4=C(CC[C@H]3[C@@H]1CC[C@@]21CN(C)C(=O)O1)CC(=O)CC4 [13β-Ethylgon-5(10)-en-3-one-17S-spiro-5'-(2'-oxo-3'-methyloxazolidine)], the “log (Na × 10 / K), X ± S” value (aldosterone; 480 μg/animal p.o., with DOCA) was 1.02, the “Activity related to Spironolactone” value (aldosterone; 480 μg/animal p.o.) was 0.84 and the “log (Na × 10 / K), X ± S” value (aldosterone; 960 μg/animal p.o., with DOCA) was 1.34. For the same compound, the inhibition in vivo at 0.48 mg (aldosterone; [2]) was 31%, the inhibition in vivo at 0.96 mg (aldosterone; [3]) was 71% and the “+ Stimulation, % / - Inhibition, %” value [1, 4] was “+14.0%”. The “Increase in weight of vesicula seminalis” value [1, 4] was 114.0%.

CC(=O)S[C@@H]1CC2=CC(=O)CC[C@]2(C)[C@H]2CC[C@@]3(C)[C@@H](CC[C@@]34CCC(=O)O4)[C@H]12 [Spironolactone, 17α-carboxyethyl-17β-hydroxy-7α-acetylthioandrost-4-en-3-one-lactone, reference compound] was tested, and the “log (Na × 10 / K), X ± S” value (aldosterone; 480 μg/animal p.o., with DOCA) was 1.21, the “Activity related to Spironolactone” value (aldosterone; 480 μg/animal p.o.) was 1.0 and the inhibition in vivo at 0.48 mg (aldosterone; [2]) was 54%. For the same compound, the “inhibition (antiandrogenic activity)” value ([1]; 5.0 mg/2 weeks/animal s.c.) was 32.5%, the “+ Stimulation, % / - Inhibition, %” value [1, 4] was -32.5% and the “Increase in weight of vesicula seminalis” value [1, 4] was 67.5%. The “inhibition (antiandrogenic activity)” value ([1]; 10.0 mg/2 weeks/animal s.c.) was 50.6%, the “+ Stimulation, % / - Inhibition, %” value [1, 5] was -50.6% and the “Increase in weight of vesicula seminalis” value [1, 5] was 49.4%.

With CC[C@]12CC[C@H]3[C@@H](CCC4=CC(=O)CC[C@@H]43)[C@@H]1CC[C@@]21CN(C)C(=O)O1 [13β-Ethyl-4-en-3-one-17S-spiro-5'-(2'-oxo-3'-methyloxazolidine)] the “log (Na × 10 / K), X ± S” value (aldosterone; 480 μg/animal p.o., with DOCA) was 1.13, the “Activity related to Spironolactone” value (aldosterone; 480 μg/animal p.o.) was 0.93 and the “log (Na × 10 / K), X ± S” value (aldosterone; 960 μg/animal p.o., with DOCA) was 1.16. The “log (Na × 10 / K), X ± S” value (aldosterone; 1920 μg/animal p.o., with DOCA) was 1.30, the inhibition in vivo at 0.48 mg (aldosterone; [2]) was 45% and the inhibition in vivo at 0.96 mg (aldosterone; [3]) was 49%. For the same compound, the inhibition in vivo at 1.92 mg (aldosterone; Rattus norvegicus, po, 1920 μg/animal p.o., read-out: DOCA blocking activity) was 67%.

In the case of CN1C[C@@]2(CC[C@H]3[C@@H]4CCC5=CC(=O)CC[C@@H]5[C@H]4CC[C@@]32C)OC1=O [Oestr. 4-en-3-one-17S-spiro-5'-(2'-oxo-3'-methyloxazolidine)], the “log (Na × 10 / K), X ± S” value (aldosterone; 480 μg/animal p.o., with DOCA) was 1.26, the “Activity related to Spironolactone” value (aldosterone; 480 μg/animal p.o.) was 1.04 and the “log (Na × 10 / K), X ± S” value (aldosterone; 960 μg/animal p.o., with DOCA) was 1.12. The inhibition in vivo at 0.48 mg (aldosterone; [2]) was 61%, the inhibition in vivo at 0.96 mg (aldosterone; [3]) was 44% and the “+ Stimulation, % / - Inhibition, %” value [1, 4] was “+13.0%”. For the same compound, the “Increase in weight of vesicula seminalis” value [1, 4] was 113.0%.

In the case of CN1C[C@@]2(CC[C@H]3[C@@H]4C=CC5=CC(=O)CC[C@]5(C)[C@H]4CC[C@@]32C)OC1=O [Androst-4,6-dien-3-one-17S-spiro-5'-(2'-oxo-3'-methyloxazolidine)], the “log (Na × 10 / K), X ± S” value (aldosterone; 480 μg/animal p.o., with DOCA) was 1.14, the “Activity related to Spironolactone” value (aldosterone; 480 μg/animal p.o.) was 0.94 and the “log (Na × 10 / K), X ± S” value (aldosterone; 960 μg/animal p.o., with DOCA) was 1.74. For the same compound, the inhibition in vivo at 0.48 mg (aldosterone; [2]) was 46%, the inhibition in vivo at 0.96 mg (aldosterone; [3]) was 123% and the “+ Stimulation, % / - Inhibition, %” value [1, 4] was -1.4%. For the same compound, the “Increase in weight of vesicula seminalis” value [1, 4] was 98.6%.

CC[C@]12C=CC3=C4CCC(=O)C=C4CC[C@H]3[C@@H]1CC[C@@]21CN(C)C(=O)O1 [13β-Ethylgona-4,9(10),11-trien-3-one-17S-spiro-5'-(2'-oxo-3'-methyloxazolidine)] was tested, and the antialdosterone activity (aldosterone; compared with the compounds listed in Table I, result in words) was “negligible” and the “inhibition against testosterone propionate (antiandrogenic activity)” value ([1]; 300 μg/2 weeks/animal, against 300 μg/2 weeks/animal T.P.) was 70%.

For CC(=O)OCC(=O)[C@H]1CC[C@H]2[C@@H]3CCC4=CC(=O)CC[C@]4(C)[C@H]3CC[C@]12C [DOCA, Pregn-4-ene-3,20-dion-21-ol-acetate, reference compound], the “log (Na × 10 / K), X ± S” value (aldosterone; DOCA, 12.5 μg/animal s.c.) was 0.78.
